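Growth conditions: 96-well plates. Treatment: test compound, 48 hours, 5 concentrations. Analysis: linear interpolation between bracketing concentrations; unreached endpoints set to highest concentration. At the TGI there is no net growth.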
What was measured:
Experiment in all cases: NCI tumour cell line growth inhibition, 48 h
HOP-18 NSCLC = system: HOP-18 NSCLC
RXF-631 renal = system: RXF-631 renal
SNB-78 CNS = system: SNB-78 CNS
DLD-1 colon = system: DLD-1 colon
P388 leukemia = system: P388 leukemia
SN12K1 renal = system: SN12K1 renal
P388/ADR leukemia = system: P388/ADR leukemia
XF 498 CNS = system: XF 498 CNS

| SMILES | TGI (HOP-18 NSCLC) [µM] | TGI (RXF-631 renal) [µM] | TGI (SNB-78 CNS) [µM] | TGI (DLD-1 colon) [µM] | TGI (P388 leukemia) [µM] | TGI (SN12K1 renal) [µM] | TGI (P388/ADR leukemia) [µM] | TGI (XF 498 CNS) [µM] |
| --- | --- | --- | --- | --- | --- | --- | --- | --- |
| CS(=O)(=O)OCc1c(O)c2c(c(O)c1COS(C)(=O)=O)C(=O)C=CC2=O | > 100 | > 100 | > 100 | > 100 |  |  |  |  |
| C=C1C(=O)OC2/C=C(\C)CC(O)/C=C(/CO)CC(OC(=O)/C(C)=C/C)C12 (centres undefined) | 49.7 |  | 319 | 139 | 113 | 76.6 | 240 | 37.2 |
| C[C@H](O)C(=O)SC[C@H](NC(=O)CC[C@@H](N)C(=O)O)C(=O)NCC(=O)O |  |  |  | > 100 |  |  |  |  |
| CC(C)Cc1cccc(C(C)C)c1NC(=O)CCC(=O)N/N=C1\C(=N/NC(=O)CCC(=O)Nc2c(C(C)C)cccc2C(C)C)C(c2ccc3c(c2)OCO3)Oc2ccccc21 (centres undefined) |  |  | > 100 | > 100 |  |  |  | > 100 |
| CCCC(=O)OCC(O)CO (centres undefined) | > 5000 |  | > 5000 | > 5000 |  |  |  |  |
| O=C(/N=C/c1c(O)c2ccccc2oc1=O)NC1CCCCC1 |  |  | > 100 |  |  |  |  | 93 |
| NC1=NS(=O)(=O)Nc2nc(-c3cccs3)[nH]c21 | > 100 |  |  | > 100 |  |  |  |  |
| FC(F)(F)C1=NC(=NNc2nnc(-c3ccccc3)c(-c3ccccc3)n2)N=C(C(F)(F)F)C1 | > 100 |  | > 100 | > 100 | > 47.5 | > 100 | > 100 | > 88.5 |
